According to PubChem BioAssay AID248 (DTP/NCI, 2004):
Where “and” joins values, the source holds several entries; their conditions need not be identical. Equal entries are not always repeated. Toxic doses and inconclusive results are not listed. Rule as the data show it: active = T/C of 150% or more; inactive = T/C below 125%.

System: L1210 leukemia ip in BDF1 mice, survival T/C
Assay: NCI In Vivo Anticancer Drug Screen. Data for tumor model L1210 Leukemia (intraperitoneal) in B6D2F1 (BDF1) mice
Settings: endpoint: mean survival time, higher = longer survival
Method in brief: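 In this screen, tumor-bearing mice given compound are compared to those given vehicle, and their survival values are reported as a treated-to-control quotient.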

[1] = dose: 100.0 mg/kg/injection, schedule: Q04DX003 (ip), vehicle: saline
[2] = dose: 25.0 mg/kg/injection, schedule: Q01DX009 (ip), vehicle: Klucel (hydroxypropylcellulose) (HPC)
[3] = dose: 50.0 mg/kg/injection, schedule: Q01DX009 (ip), vehicle: Klucel (hydroxypropylcellulose) (HPC)
[4] = dose: 100.0 mg/kg/injection, schedule: Q04DX003 (ip), vehicle: Klucel (hydroxypropylcellulose) (HPC)
[5] = dose: 200.0 mg/kg/injection, schedule: Q04DX003 (ip), vehicle: Klucel (hydroxypropylcellulose) (HPC)
[6] = dose: 400.0 mg/kg/injection, schedule: Q04DX003 (ip), vehicle: Klucel (hydroxypropylcellulose) (HPC)
[7] = dose: 100.0 mg/kg/injection, schedule: Q01DX009 (ip), vehicle: Klucel (hydroxypropylcellulose) (HPC)
[8] = dose: 200.0 mg/kg/injection, schedule: Q01DX009 (ip), vehicle: Klucel (hydroxypropylcellulose) (HPC)
[9] = dose: 400.0 mg/kg/injection, schedule: Q01DX009 (ip), vehicle: Klucel (hydroxypropylcellulose) (HPC)
[10] = dose: 100.0 mg/kg/injection, schedule: Q04DX003 (ip), vehicle: saline with Tween-80
[11] = dose: 200.0 mg/kg/injection, schedule: Q04DX003 (ip), vehicle: saline with Tween-80
[12] = dose: 400.0 mg/kg/injection, schedule: Q04DX003 (ip), vehicle: saline with Tween-80
[13] = dose: 25.0 mg/kg/injection, schedule: Q04DX003 (ip), vehicle: saline

Measured: T/C

CCC1(O)CCCC1
inactive: dose: 50.0 mg/kg/injection, schedule: Q01DX001 (ip), vehicle: carboxymethylcellulose (CMC) 95 % of control | dose: 100.0 mg/kg/injection, schedule: Q01DX001 (ip), vehicle: carboxymethylcellulose (CMC) 92 % of control | dose: 200.0 mg/kg/injection, schedule: Q01DX001 (ip), vehicle: carboxymethylcellulose (CMC) 92 % of control | dose: 400.0 mg/kg/injection, schedule: Q01DX001 (ip), vehicle: carboxymethylcellulose (CMC) 97 % of control

COC(Cl)C(Cl)(Cl)Cl (centres undefined)
inactive: dose: 50.0 mg/kg/injection, schedule: Q01DX009 (ip), vehicle: saline 93 % of control | dose: 100.0 mg/kg/injection, schedule: Q01DX001 (ip), vehicle: acetone 103 % of control | dose: 100.0 mg/kg/injection, schedule: Q01DX009 (ip), vehicle: saline 88 % of control | [1] 103 % of control | dose: 200.0 mg/kg/injection, schedule: Q01DX001 (ip), vehicle: acetone 90 % of control | dose: 200.0 mg/kg/injection, schedule: Q01DX009 (ip), vehicle: saline 91 % of control | dose: 200.0 mg/kg/injection, schedule: Q04DX003 (ip), vehicle: saline 100 % of control | dose: 400.0 mg/kg/injection, schedule: Q01DX001 (ip), vehicle: acetone 92 % of control

CCCCCCCCCCCCCCOc1ccc(S(=O)(=O)/N=C(\N)NC(N)=NCCCCCCCCCC)cc1
inactive: dose: 100.0 mg/kg/injection, schedule: Q04DX002 (ip), vehicle: Klucel (hydroxypropylcellulose) (HPC) 89 % of control | dose: 200.0 mg/kg/injection, schedule: Q04DX002 (ip), vehicle: Klucel (hydroxypropylcellulose) (HPC) 101 % of control | dose: 400.0 mg/kg/injection, schedule: Q04DX002 (ip), vehicle: Klucel (hydroxypropylcellulose) (HPC) 89 % of control

CCC(=O)Nc1cccc2ccccc12
inactive: dose: 12.5 mg/kg/injection, schedule: Q01DX009 (ip), vehicle: Klucel (hydroxypropylcellulose) (HPC) 104 % of control | [2] 112 % of control | [3] 101 % of control and 89 % of control | [4] 95 % of control | [5] 106 % of control

CCCCOC(=O)CCSCCC(=O)OCCCC
inactive: dose: 100.0 mg/kg/injection, schedule: Q01DX009 (ip), vehicle: saline with Tween-80 102 % of control | dose: 200.0 mg/kg/injection, schedule: Q01DX009 (ip), vehicle: saline with Tween-80 94 % of control | dose: 400.0 mg/kg/injection, schedule: Q01DX009 (ip), vehicle: saline with Tween-80 102 % of control

COc1cc2c(c(OC)c1OC)-c1ccc(OC)c(=O)cc1C(NC(=S)Nc1ccccc1)CC2 (centres undefined)
inactive: dose: 62.5 mg/kg/injection, schedule: Q01DX009 (ip), vehicle: other 104 % of control | dose: 125.0 mg/kg/injection, schedule: Q01DX009 (ip), vehicle: other 98 % of control | dose: 250.0 mg/kg/injection, schedule: Q01DX009 (ip), vehicle: other 103 % of control

COC(=O)C1C2CCc3cc(OC)ccc3C2=CCC1C(OC)OC (centres undefined)
inactive: [4] 89 % of control | [5] 89 % of control | [6] 89 % of control

CCCCCCC#CC(=O)OCCCC
inactive: dose: 100.0 mg/kg/injection, schedule: Q04DX002 (ip), vehicle: saline with Tween-80 93 % of control | dose: 200.0 mg/kg/injection, schedule: Q04DX002 (ip), vehicle: saline with Tween-80 93 % of control | dose: 400.0 mg/kg/injection, schedule: Q04DX002 (ip), vehicle: saline with Tween-80 90 % of control

Cc1ccc(NC(=O)Nc2cccc(Cl)c2)c(C)c1
inactive: [7] 86 % of control | [8] 94 % of control | [9] 87 % of control

O=C(O)CCC(=O)NCCN(CCNC(=O)CCC(=O)O)C(=O)CCC(=O)O
inactive: dose: 100.0 mg/kg/injection, schedule: Q01DX001 (ip), vehicle: other 105 % of control | dose: 100.0 mg/kg/injection, schedule: Q01DX009 (ip), vehicle: water 100 % of control | dose: 100.0 mg/kg/injection, schedule: Q04DX003 (ip), vehicle: water 105 % of control | dose: 200.0 mg/kg/injection, schedule: Q01DX001 (ip), vehicle: other 100 % of control | dose: 200.0 mg/kg/injection, schedule: Q01DX009 (ip), vehicle: water 97 % of control | dose: 200.0 mg/kg/injection, schedule: Q04DX003 (ip), vehicle: water 98 % of control | dose: 400.0 mg/kg/injection, schedule: Q01DX001 (ip), vehicle: other 98 % of control | dose: 400.0 mg/kg/injection, schedule: Q01DX009 (ip), vehicle: water 97 % of control | dose: 400.0 mg/kg/injection, schedule: Q04DX003 (ip), vehicle: water 102 % of control

CCN(CC)CCSC(=O)C(O)(c1ccccc1)C1CCCCC1 (centres undefined)
inactive: dose: 75.0 mg/kg/injection, schedule: Q01DX001 (ip), vehicle: other 100 % of control

CC1(C)CC(N=Cc2ccccc2O)CC(C)(C)N1O
inactive: [10] 94 % of control | [11] 97 % of control | [12] 100 % of control

CC1(C#N)CC(c2ccccc2)Nc2ccccc2N1 (centres undefined)
inactive: [7] 92 % of control | [4] 98 % of control | [8] 100 % of control | [5] 96 % of control | dose: 264.0 mg/kg/injection, schedule: Q04DX003 (ip), vehicle: Klucel (hydroxypropylcellulose) (HPC) 96 % of control and 97 % of control | [9] 97 % of control

ClCc1ccc2c(c1)OCO2
inactive: [4] 104 % of control | [5] 101 % of control | [6] 98 % of control

C=CCNCCN1CCN(CCCN2c3ccccc3Sc3ccc(C(F)(F)F)cc32)CC1
inactive: dose: 6.25 mg/kg/injection, schedule: Q04DX003 (ip), vehicle: saline 106 % of control | dose: 12.5 mg/kg/injection, schedule: Q01DX009 (ip), vehicle: saline 103 % of control | dose: 12.5 mg/kg/injection, schedule: Q04DX003 (ip), vehicle: saline 98 % of control | dose: 25.0 mg/kg/injection, schedule: Q01DX009 (ip), vehicle: saline 102 % of control | [13] 102 % of control | dose: 50.0 mg/kg/injection, schedule: Q04DX003 (ip), vehicle: saline 96 % of control

CN(C)C(=O)Sc1ccc([N+](=O)[O-])cc1
inactive: [10] 105 % of control | [11] 111 % of control | [12] 104 % of control

CCCCN(CCCC)CCCOc1cc(C)ccc1C(C)C
inactive: dose: 3.0 mg/kg/injection, schedule: Q04DX003 (ip), vehicle: saline 97 % of control | dose: 6.0 mg/kg/injection, schedule: Q04DX003 (ip), vehicle: saline 105 % of control and 106 % of control | dose: 12.0 mg/kg/injection, schedule: Q01DX009 (ip), vehicle: Klucel (hydroxypropylcellulose) (HPC) 102 % of control | dose: 12.0 mg/kg/injection, schedule: Q04DX003 (ip), vehicle: saline 95 % of control and 107 % of control | [2] 93 % of control | [13] 97 % of control and 98 % of control and 105 % of control | [3] 109 % of control | [1] 109 % of control
